# Columns and labels:
# hSortilin = hSortilin (Homo sapiens (Human), UniProt Q99523); test: hSortilin affinity assay: displacement of 3H-neurotensin binding, SPA format; details: read-out: hSortilin NTS Binding, Inhibition at 50 μM
# [1] = target: human sortilin (S-18 cells) (Homo sapiens (Human), UniProt Q99523); test: Endogenous PGRN endocytosis assay (PGRN ELISA of media); type: cell-based; details: PGRN allowed to accumulate 24 hrs, compounds added day 2, further 24 hrs
# Chain of human sortilin (S-18 cells) (Q99523 78-831): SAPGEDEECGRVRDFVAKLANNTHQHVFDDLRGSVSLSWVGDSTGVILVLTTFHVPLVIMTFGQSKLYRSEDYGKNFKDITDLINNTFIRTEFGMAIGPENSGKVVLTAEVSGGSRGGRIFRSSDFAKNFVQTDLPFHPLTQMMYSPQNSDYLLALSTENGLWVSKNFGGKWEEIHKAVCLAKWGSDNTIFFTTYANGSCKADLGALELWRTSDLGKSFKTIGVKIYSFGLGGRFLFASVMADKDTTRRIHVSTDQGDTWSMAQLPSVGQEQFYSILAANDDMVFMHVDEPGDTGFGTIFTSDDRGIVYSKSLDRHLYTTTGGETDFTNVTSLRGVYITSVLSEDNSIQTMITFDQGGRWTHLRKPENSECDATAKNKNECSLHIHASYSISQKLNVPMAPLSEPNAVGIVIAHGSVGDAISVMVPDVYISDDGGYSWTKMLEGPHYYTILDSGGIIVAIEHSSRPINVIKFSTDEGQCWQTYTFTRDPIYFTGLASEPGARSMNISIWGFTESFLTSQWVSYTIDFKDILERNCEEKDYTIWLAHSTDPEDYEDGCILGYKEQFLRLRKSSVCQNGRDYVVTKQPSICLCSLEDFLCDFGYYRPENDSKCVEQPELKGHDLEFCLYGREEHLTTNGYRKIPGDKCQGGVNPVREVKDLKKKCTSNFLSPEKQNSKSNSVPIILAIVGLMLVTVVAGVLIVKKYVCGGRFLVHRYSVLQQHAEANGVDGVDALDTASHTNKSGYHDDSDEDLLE
# Method: Stable cell lines expressing human sortilin (S-18) were generated by transfecting HEK293 cells with a human sortilin expression vector, followed by few rounds of passage with the appropriate selection agent.
# On day1, S-18 cells are seeded in a 96 well plate. After 24 hrs, media is completely replaced with either media or one of the test compounds. All compounds were tested at 10 μM unless otherwise specified. Media is collected on day 3 and analyzed using PGRN ELISA (R&D). Cell viability is assessed by Cell TiterGlo (ProMega) to evaluate cytotoxic effect of the compounds.
# On day 2, the compounds are added to the cells and incubated for a further 24 hrs, when the media is harvested and PGRN levels analyzed using ELISA kit.
# Chain of hSortilin (Q99523 34-755): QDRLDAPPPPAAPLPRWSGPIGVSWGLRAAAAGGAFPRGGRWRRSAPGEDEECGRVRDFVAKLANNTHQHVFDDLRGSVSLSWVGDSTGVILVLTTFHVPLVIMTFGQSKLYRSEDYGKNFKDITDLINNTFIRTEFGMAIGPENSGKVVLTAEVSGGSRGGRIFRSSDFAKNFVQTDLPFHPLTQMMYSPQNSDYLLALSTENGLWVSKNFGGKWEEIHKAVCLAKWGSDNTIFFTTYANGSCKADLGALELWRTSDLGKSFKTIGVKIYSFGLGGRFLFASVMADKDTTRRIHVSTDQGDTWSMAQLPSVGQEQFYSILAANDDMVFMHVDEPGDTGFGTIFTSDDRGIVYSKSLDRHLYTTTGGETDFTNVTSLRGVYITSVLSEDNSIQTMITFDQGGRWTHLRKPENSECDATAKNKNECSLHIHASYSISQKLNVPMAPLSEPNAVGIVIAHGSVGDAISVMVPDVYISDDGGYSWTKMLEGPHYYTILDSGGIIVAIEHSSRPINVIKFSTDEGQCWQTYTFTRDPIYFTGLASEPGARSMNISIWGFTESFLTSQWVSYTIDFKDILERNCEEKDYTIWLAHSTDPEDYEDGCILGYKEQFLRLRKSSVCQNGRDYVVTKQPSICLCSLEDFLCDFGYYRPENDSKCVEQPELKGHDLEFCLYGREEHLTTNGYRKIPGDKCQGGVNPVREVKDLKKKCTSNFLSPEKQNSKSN
Molecule,inhibition at 50 µM (hSortilin),"PGRN levels in cell culture media, competition paradigm (FIG. 1) [1]"
"Cc1ccc(NC(=O)c2ccc(Br)cc2C(=O)O)cn1 [Example 31, 5-Bromo-N-(6-methyl-pyridin-3-yl)-phthalamic acid]",70%,–
"Cc1cccc(NC(=O)c2ccc(C(F)(F)F)cc2C(=O)O)n1 [Example 1, N-(6-Methyl-pyridin-2-yl)-5-trifluoromethyl-phthalamic acid]",–,increase in PGRN levels
"Cc1cccnc1NC(=O)c1ccc(Br)cc1C(=O)O [Example 27, 5-Bromo-N-(3-methyl-pyridin-2-yl)-phthalamic acid]",64%,–
"scrambled neurotensin: scrambled neurotensin, sequence LIYPRNEYELRKP (SEQ ID NO:1); does not bind sortilin, negative control (Scrambled Human Neurotensin) [reference compound]",–,did not have any effect
